Where two headings read alike, the source gives them in different places.

This passage reports IC50 results from patent publication US9227971B2, “Pyrazolo[1,5-a]pyrimidine compounds as mTOR inhibitors” (Merck Sharp & Dohme Corp., priority 2010, dated 2016).

The subject of test [1] is phosphorylated 4E-BP1 Thr37/46 (p4E-BP1 Thr37/46), mTORC1 activity, PC3 cells. The experiment in a line: mTOR target engagement assay, immunofluorescent cell-based, p4E-BP1 Thr37/46 readout (mTORC1 activity). As to conditions: Homo sapiens, read-out: p4E-BP1 Thr37/46 IC50. In short, it runs like this: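 PTEN-mutant PC3 prostate cells were treated with serially diluted compound in 5% FBS F12 medium (0.25% DMSO) for ninety minutes at 37° C, glyoxal-fixed, then immunostained overnight at 4° C for p4E-BP1 Thr37/46 with an Alexa Fluor 488 secondary. IC50 came from four-parameter fits of fluorescence, DMSO-only wells defining 100%.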

For test [2], the system named is phosphorylated AKT Ser473 (pAKT S473), mTORC2 activity, PC3 cells. The experiment in a line: mTOR target engagement assay, immunofluorescent cell-based, pAKT S473 readout (mTORC2 activity). As to conditions: Homo sapiens. The essentials:
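After blocking, cells were stained overnight at 4 °C with anti-pAKT S473 antibody, then a fluorescent secondary; inhibition was read as reduced fluorescence intensity.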

Where [3] appears, read: PC-3, PC3 cells, compound treatment ninety minutes at 37° C.

As to `CC(=O)c1c([C@@H]2C[C@H]3CC[C@@H](C2)N3C(N)=O)nc2c(-c3ccc(-c4cnn(C)c4)nc3)cnn2c1N` [Compound 1.1.175, (1R,3s,5S)-3-(6-acetyl-7-amino-3-(6-(1-methyl-1H-pyrazolo-4-yl)pyridin-3-yl)pyrazolo[1,5-a]pyrimidin-5-yl)-8-azabicyclo[3.2.1]octane-8-carboxamide], the IC50 in test [1] (setting [3]) was 0.1 to 1 µM; in test [2] (setting [3]), 0.001 to 0.1 µM.
In the case of `CC(=O)c1c([C@@H]2C[C@H]3CC[C@@H](C2)N3C(=O)CO)nc2c(-c3ccc(-c4cc(C)[nH]n4)nc3)cnn2c1N` [Compound 1.1.96, 1-((1R,3s,5S)-3-(6-acetyl-7-amino-3-(6-(5-methyl-1H-pyrazol-3-yl)pyridin-3-yl)pyrazolo[1,5-a]pyrimidin-5-yl)-8-azabicyclo[3.2.1]octan-8-yl)-2-hydroxyethanone], the IC50 in test [1] (setting [3]) and in test [2] (setting [3]) was above 10 µM each time.
Consider `CC(=O)c1c([C@@H]2C[C@H]3CC[C@@H](C2)N3C(=O)c2cc[nH]c2)nc2c(-c3ccc(C(C)(C)O)nc3)cnn2c1N` [Compound 7.16, 1-(5-((1R,3s,5S)-8-(1H-pyrrole-3-carbonyl)-8-azabicyclo[3.2.1]octan-3-yl)-7-amino-3-(6-(2-hydroxypropan-2-yl)pyridin-3-yl)pyrazolo[1,5-a]pyrimidin-6-yl)ethanone], for which the IC50 in test [1] (setting [3]) fell in the range of 0.1 to 1 µM; in test [2] (setting [3]), 0.001 to 0.1 µM.
On to `COc1ccc(-c2ccc(-c3cnn4c(N)c(C(C)=O)c([C@@H]5C[C@H]6CC[C@@H](C5)N6C(=O)c5nnc[nH]5)nc34)cn2)cc1F` [Compound 1.1.57, 1-(5-((1R,3s,5S)-8-(4H-1,2,4-triazole-3-carbonyl)-8-azabicyclo[3.2.1]octan-3-yl)-7-amino-3-(6-(3-fluoro-4-methoxyphenyl)pyridin-3-yl)pyrazolo[1,5-a]pyrimidin-6-yl)ethanone], for which the IC50 in test [1] (setting [3]) and in test [2] (setting [3]) was 0.001 to 0.1 µM each time.
Consider `COc1ccc(-c2ccc(-c3cnn4c(N)c(S(C)(=O)=O)c([C@@H]5C[C@H]6CC[C@@H](C5)N6C(=O)c5nnc[nH]5)nc34)cn2)cc1OC` [Compound 3.39, ((1R,3s,5S)-3-(7-amino-3-(6-(3,4-dimethoxyphenyl)pyridin-3-yl)-6-(methylsulfonyl)pyrazolo[1,5-a]pyrimidin-5-yl)-8-azabicyclo[3.2.1]octan-8-yl)(4H-1,2,4-triazol-3-yl)methanone], for which the IC50 was in the range of 0.1 to 1 µM in test [1] (PC-3, Table 3-1, PC3 cells) and 0.1 to 1 µM in test [2] (PC-3, Table 3-1, PC3 cells).
In the case of `CC(=O)c1c([C@@H]2C[C@H]3CC[C@@H](C2)N3C(=O)c2nnc[nH]2)nc2c(-c3ccc(-c4c(F)cccc4F)nc3)cnn2c1N` [Compound 1.1.147, 1-(5-((1R,3s,5S)-8-(4H-1,2,4-triazole-3-carbonyl)-8-azabicyclo[3.2.1]octan-3-yl)-7-amino-3-(6-(2,6-difluorophenyl)pyridin-3-yl)pyrazolo[1,5-a]pyrimidin-6-yl)ethanone], the IC50 in test [1] (setting [3]) and in test [2] (setting [3]) was 0.001 to 0.1 µM in each case.
As to `Cc1cnc(-c2ccc(-c3cnn4c(N)c(S(C)(=O)=O)c([C@H]5CC6CC[C@H](C5)N6C(=O)c5nnc[nH]5)nc34)cn2)s1` [Compound 3.180, ((1R,3s,5S)-3-(7-amino-6-(methylsulfonyl)-3-(6-(5-methylthiazol-2-yl)pyridin-3-yl)pyrazolo[1,5-a]pyrimidin-5-yl)-8-azabicyclo[3.2.1]octan-8-yl)(4H-1,2,4-triazol-3-yl)methanone], the IC50 in test [1] (PC-3, Table 3-1, PC3 cells) fell in the range of 0.001 to 0.1 µM; in test [2] (PC-3, Table 3-1, PC3 cells) it was 0.001 to 0.1 µM.
`Cc1nc(-c2ccc(-c3cnn4c(N)c(S(C)(=O)=O)c([C@@H]5C[C@H]6CC[C@@H](C5)N6C(=O)c5nnc[nH]5)nc34)cn2)sc1C` [Compound 3.196, ((1R,3s,5S)-3-(7-amino-3-(6-(4,5-dimethylthiazol-2-yl)pyridin-3-yl)-6-(methylsulfonyl)pyrazolo[1,5-a]pyrimidin-5-yl)-8-azabicyclo[3.2.1]octan-8-yl)(4H-1,2,4-triazol-3-yl)methanone]: the IC50 fell in the range of 0.1 to 1 µM in test [1] (PC-3, Table 3-1, PC3 cells) and 0.1 to 1 µM in test [2] (PC-3, Table 3-1, PC3 cells).
Consider `CS(=O)(=O)c1c([C@@H]2C[C@H]3CC[C@@H](C2)N3C(=O)c2nnc[nH]2)nc2c(-c3ccc(-c4ccccc4F)nc3)cnn2c1N` [Compound 3.104, ((1R,3s,5S)-3-(7-amino-3-(6-(2-fluorophenyl)pyridin-3-yl)-6-(methylsulfonyl)pyrazolo[1,5-a]pyrimidin-5-yl)-8-azabicyclo[3.2.1]octan-8-yl)(4H-1,2,4-triazol-3-yl)methanone], for which the IC50 was 0.001 to 0.1 µM in test [1] (PC-3, Table 3-1, PC3 cells) and 0.001 to 0.1 µM in test [2] (PC-3, Table 3-1, PC3 cells).
As for `COc1cc(F)c(-c2ccc(-c3cnn4c(N)c(C5CC5)c([C@@H]5C[C@H]6CC[C@@H](C5)N6C(=O)c5nnc[nH]5)nc34)cn2)cc1F` [Compound 4.12, ((1R,3a,5S)-3-(7-amino-6-cyclopropyl-3-(6-(2,5-difluoro-4-methoxyphenyl)pyridin-3-yl)pyrazolo[1,5-a]pyrimidin-5-yl)-8-azabicyclo[3.2.1]octan-8-yl)(4H-1,2,4-triazol-3-yl)methanone], the IC50 in test [1] (setting [3]) and in test [2] (setting [3]) was 0.001 to 0.1 µM in each case.
`CC(=O)c1c(C2CC3COCC(C2)N3C(=O)c2nc[nH]n2)nc2c(-c3ccc(-c4ccccc4)nc3)cnn2c1N` (stereo not drawn) [Compound 8.27, 1-(5-(9-(1H-1,2,4-triazole-3-carbonyl)-3-oxa-9-azabicyclo[3.3.1]nonan-7-yl)-7-amino-3-(6-phenylpyridin-3-yl)pyrazolo[1,5-a]pyrimidin-6-yl)ethanone]: the IC50 in test [1] (PC-3, PC3 cells) was 0.1 to 1 µM; in test [2] (PC-3, PC3 cells) it was 0.001 to 0.1 µM.
For `CC(=O)c1c([C@@H]2C[C@H]3CC[C@@H](C2)N3C(=O)[C@@H](C)O)nc2c(-c3ccc(-c4ncc[nH]4)nc3)cnn2c1N` [Compound 6.12, (R)-1-((1R,3S,5S)-3-(3-(6-(1H-imidazol-2-yl)pyridin-3-yl)-6-acetyl-7-aminopyrazolo[1,5-a]pyrimidin-5-yl)-8-azabicyclo[3.2.1]octan-8-yl)-2-hydroxypropan-1-one], the IC50 in test [1] (PC-3, Table 6-1, PC3 cells) was in the range of 0.001 to 0.1 µM; in test [2] (PC-3, Table 6-1, PC3 cells), 0.001 to 0.1 µM.
Turning to `[2H]C1(O)CCCc2cc(-c3cnn4c(N)c(C5CC5)c([C@H]5CC6CC[C@H](C5)N6C(=O)c5nnc[nH]5)nc34)cnc21` (stereo partly drawn) [Compound 7.56, DEUTERATED-(3- EXO)-3-[7-AMINO-6- CYCLOPROPYL-3- (5,6,7,8- TETRAHYDRO-8- HYDROXY-3- QUINOLINYL- (D))PYRAZOLO[1,5- a]PYRIMIDIN-5-YL]-8- (4H-1,2,4-TRIAZOL-3- YLCARBONYL)-8- AZABICYCLO[3.2.1] OCTANE], the IC50 is 0.001 to 0.1 µM in test [1] (PC-3, PC3 cells) and 0.001 to 0.1 µM in test [2] (PC-3, PC3 cells).
With `Cc1nnc(C(=O)N2[C@@H]3CC[C@H]2C[C@H](c2nc4c(-c5cn[nH]c5)cnn4c(N)c2S(C)(=O)=O)C3)[nH]1` [Compound 3.115, ((1R,3s,5S)-3-(7-amino-6-(methylsulfonyl)-3-(1H-pyrazol-4-yl)pyrazolo[1,5-a]pyrimidin-5-yl)-8-azabicyclo[3.2.1]octan-8-yl)(5-methyl-4H-1,2,4-triazol-3-yl)methanone], the IC50 in test [1] (PC-3, Table 3-1, PC3 cells) was above 10 µM; in test [2] (PC-3, Table 3-1, PC3 cells), above 10 µM.
For the compound `CC(=O)c1c([C@@H]2C[C@H]3CC[C@@H](C2)N3C(=O)c2cc[nH]c2)nc2c(-c3ccc(-c4ccccc4)nc3)cnn2c1N` [Compound 1.1.41, 1-(5-((1R,3s,5S)-8-(1H-pyrrole-3-carbonyl)-8-azabicyclo[3.2.1]octan-3-yl)-7-amino-3-(6-phenylpyridin-3-yl)pyrazolo[1,5-a]pyrimidin-6-yl)ethanone], the IC50 in test [1] (setting [3]) and in test [2] (setting [3]) was 0.001 to 0.1 µM throughout.
